The source of these data is patent US10137122B2, “Kinase inhibitors and methods of use thereof” (priority 2012, dated 2018).

Broadly, the pIC50 is −log10 of the IC50, conventionally taken in molar units. A word on the inhibition: it is the relative decrease from the control value, in per cent.

One data set has as its system GSK3. The settings on record: read-out: GSK3 IC50 of lithium; cited from earlier work.
For data set [1] the following is noted: mouse plasma, 5 hours.
Data set [2] has as its system phospho-Tau (Ser199) in SH-SY5Y cells. Put plainly: Tau phosphorylation assay (phospho-Tau Ser199 ELISA). The settings on record: Homo sapiens, read-out: p-Tau Inhibition ELISA EC50 SH-SY5Y. Format: cell-based, human. (In general: An ELISA detects its analyte on a solid surface through an enzyme-linked reagent.)
Description: Tau Phosphorylation and Total Tau Assay
SH-SY5Y cells were maintained in DMEM supplemented with 10% heat-inactivated FBS and 1% penicillin-streptomycin (Invitrogen) unless otherwise stated. ELISA kits for phospho-Tau (Ser199) and total Tau detection were purchased from Invitrogen (KHB0041, and KHB7041 respectively). Briefly, SH-SY5Y cells were seeded at 50,000 cells/200 μL/well in 96 well plates and after overnight incubation, treated with various doses of chemical compounds at 0.2 μL/well. The next day cells were washed with PBS twice before being lysed in 100 μL Lysis buffer/well. 50 μL of cell lysate of each sample was transferred to an ELISA vial coated with the capture antibody, and the mixture was incubated at room temperature for 2 hours, before the supernatant was aspired, and each vial washed four times. 100 μL of detection antibody was then added to each well, incubated for 1 hour, and then washed four times. […] Data were scaled using the positive and neutral controls and fitted for IC50.
A standard protocol using an immunoassay kit to quantify total Tau protein and phospho-Tau (Ser199) protein in SH-SY5Y human neuroblastoma cells was employed. Human Tau (Total) ELISA kit (#KHB0041) and human phosphor-Tau (Ser199) ELISA kit were purchased from Invitrogen (#KHB7041)
50,000 cells were seeded in 200 μl per well in cell culture media (250,000 cells/ml). Cells were incubated overnight @37° C. Cells were induced with appropriate doses of inhibitors and incubated for approximately 24 hrs @37° C. Cell lysates were harvested by washing cells once with cold PBS and adding 100 μl cold lysis buffer and pipette up and down vigorously. Lysate was transferred to 96 well PCR plate and centrifuged at 4,000 rpm for 20 minutes at 4° C.
Well strips were warmed and inserted into the frame. 100μ of standard diluent buffer were loaded into ZERO wells, and 100 ul of each standard concentrations (both total Tau and pTau) were loaded into wells in duplicate. Samples were loaded to each well that would be analyzed for total Tau, 85 μl standard diluent buffer and 15 μl cell lysate were added. To each well that will be analyzed for pTau (Ser199) 50 μl standard diluent buffer+50 μl cell lysate were added. Plates were tapped gently on the side to mix. Certain wells were left empty for chromogen blank. Plates were covered and incubated for 2 hours at room temperature. Wells were aspirated 4 times (400 μl diluted wash buffer, left for 30 seconds, aspirated all wells; alternatively used automated plate washer and programmed in a 30 second hold between each cycle). 100 μl of detection antibody solution were added to each well except chromogen blanks. Anti-total Tau was added to wells being analyzed for total Tau, anti-pTau (Ser199) was added to wells being analyzed for pTau (Ser199), and plates were tapped gently on the side to mix. Plates were covered and incubated for 1 hour at room temperature, then wells were aspirated and washed 4 times as described above. 100 μl of anti-rabbit IgG HRP working solution (prepared ahead) were added to each well except chromogen blanks, and plates were covered and incubated for 30 minutes at room temperature, then wells were aspirated and washed 4 times as described above. 100 μl of stabilized chromogen were added to each well (the liquid turned blue). Plates were incubates for 30 minutes at room temperature in the dark, then 100 μl of stop solution were added to each well, and plates were tapped gently on the side to mix. Absorbance of each well was read at 450 nm (within 2 hours of adding stop solution).
In data set [3] the target is T1, GSK3α (Homo sapiens (Human), UniProt P49840). Put plainly: biochemical. The settings on record: read-out: % Inhibition at 10 μM, GSK3α.
Description: (§1) Briefly, a selection of compounds was screened against a panel of kinases at a single concentration of 10 μM. […] This was completed utilizing one of two assays depending on the kinase being examined.
(§2) Test compounds were dissolved in and diluted with dimethylsulfoxide (DMSO) to generate a 100× sample solution. These were then diluted to 4× sample solutions in assay buffer to make the final test compound solutions. Reference compounds for assay control were prepared similarly.
(§3) A solution of IMAP binding reagent (IMAP Screening Express kit; Molecular Devices) (60 μL) was added to each well and incubated for 30 minutes.
(§4) A solution of termination buffer (QuickScout Screening assist MSA; Carna Biosciences) (60 μL) was added to each well. The entire reaction mixture was then applied to a LabChip3000 system (Caliper Life Science) and the product and substrate peptide peaks were separated and quantified.
The target of the next data set is LIMK1 (Homo sapiens (Human), UniProt P53667). Put plainly: Single point inhibition at 10 μM (Carna), LIMK1. Format: biochemical.
The target in another data set is MELK (Homo sapiens (Human), UniProt Q14680). The data set is described as follows: Single point inhibition at 10 μM (Carna), MELK. Format: biochemical.
The next data set concerns the target CDK5 (Homo sapiens (Human), UniProt Q00535). The data set is described as follows: Single point inhibition at 10 μM (Carna), CDK5. Format: biochemical.
In data set [4] the test system is β-catenin nuclear translocation in U2-OS cells. Put plainly: β-Catenin nuclear localization assay. The note with it: Homo sapiens, U2OS, read-out: beta-Catenin translocation EC50. Format: cell-based.
Description: β-Catenin Nuclear Localization Assay
U2-OS cells stably expressing two complimentary β-galactosidase fragments (one part on β-Catenin and the other constitutively expressed in the cell nucleus) were maintained in DMEM F12 supplemented with 10% FBS. When β-catenin translocates to the nucleus, the complimentary fragments form a complete β-galactosidase, the amount of which is then quantified by β-galactosidase activity (DiscoveRx). Cells were seeded in a 384-well CulturPlate (Perkin Elmer, Boston, Mass.) with 10,000 per well in 20 μL DMEM F12 containing 10% FCS, 100 U/ml penicillin and 100 μg/mL streptomycin. After overnight incubation at 37° C., cells were stimulated with 100 nL test compound/well and then returned to the incubator for 6 h. Cells were disrupted using 12 μL substrate-containing lysis buffer from the PathHunter Detection Kit in the formulation specified by the supplier (DiscoveRx). Plates were incubated in the dark for 1 h at room temperature before measurement of β-galactosidase activity (luminescence) on an EnVision plate reader (PerkinElmer, Waltham, Mass.).
In another data set the target is HIPK4 (Homo sapiens (Human), UniProt Q8NE63). The data set is described as follows: Single point inhibition at 10 μM (Carna), HIPK4. Format: biochemical.
The target of a further data set is PLK1 (Homo sapiens (Human), UniProt P53350). The data set is described as follows: Single point inhibition at 10 μM (Carna), PLK1. Format: biochemical.
For a further data set, the target named is Erk5 (Homo sapiens (Human), UniProt Q13164). Put plainly: Single point inhibition at 10 μM (Carna), Erk5. Format: biochemical.
A short description of another data set: PBS stability. Format: physicochemical. The settings on record: 48 hours of incubation, acetonitrile recovery.
Data set [5] has as its system TCF/LEF reporter in HEK293-pBARL cells. Put plainly: cells. The settings on record: Homo sapiens.
The target in the next data set is RSK3 (Homo sapiens (Human), UniProt Q15349). The data set is described as follows: Single point inhibition at 10 μM (Carna), RSK3. Format: biochemical.
For another data set, the target named is BRAF (Homo sapiens (Human), UniProt P15056). Put plainly: Single point inhibition at 10 μM (Carna), BRAF. Format: biochemical.
Another data set concerns the target DYKR1B (Homo sapiens (Human), UniProt Q9Y463). The data set is described as follows: Single point inhibition at 10 μM (Carna), DYKR1B. Format: biochemical.
For a further data set, the target named is CK1g3 (Homo sapiens (Human), UniProt Q9Y6M4). The data set is described as follows: Single point inhibition at 10 μM (Carna), CK1g3. Format: biochemical.
Data set [6] has as its system TCF/LEF reporter in HEK293-pBARL cells. The settings on record: read-out: TCF/LEF EC50.
A short description of the next data set: GSH stability. Format: in vitro ADME. The note with it: glutathione, 48 hours. On the procedure: Stability was determined in the presence of PBS pH […] and 50 μM glutathione with 0.1% DMSO. Each compound was prepared in duplicate on six separate plates and allowed to equilibrate at room temperature with a 250 rpm orbital shake for 48 hours. One plate was removed at each time point (0, 2, 4, 8, 24, and 48 hours). […] Additionally, to the remaining material at each time point, acetonitrile was added to force dissolution of compound (to test for recovery of compound). An aliquot of this was also analyzed by UPLC-MS.

The conditions of data set [7]: M (mouse).
The target of a further data set is PKR (Homo sapiens (Human), UniProt P19525). Put plainly: Single point inhibition at 10 μM (Carna), PKR. Format: biochemical.
Another data set has as its target CK1g1 (Homo sapiens (Human), UniProt Q9HCP0). Put plainly: Single point inhibition at 10 μM (Carna), CK1g1. Format: biochemical.
The target of the next data set is CDK9 (Homo sapiens (Human), UniProt P50750). The data set is described as follows: Single point inhibition at 10 μM (Carna), CDK9. Format: biochemical.
The target in another data set is MLK3 (Homo sapiens (Human), UniProt Q16584). Put plainly: Single point inhibition at 10 μM (Carna), MLK3. Format: biochemical.
Data set [8] deals with T2, GSK3β (Homo sapiens (Human), UniProt P49841). Put plainly: biochemical. The note with it: read-out: % Inhibition at 10 μM, GSK3β.
Description: as §1, §2, §3, §4
The next data set concerns panel of 311 kinases. The data set is described as follows: Single point kinome-wide profile (Carna Biosciences). Format: biochemical.
A further data set concerns the target CDK4 (Homo sapiens (Human), UniProt P11802). The data set is described as follows: Single point inhibition at 10 μM (Carna), CDK4. Format: biochemical.
In a further data set the target is MAP2K6 (Homo sapiens (Human), UniProt P52564). The data set is described as follows: Single point inhibition at 10 μM (Carna), MAP2K6. Format: biochemical.
For data set [9], the target named is T1, GSK3α.
Description: GSK3β Microfluidic Mobility-Shift Assay
(§5) Reactions were terminated by the addition of 10 mM EDTA. Substrate and product were separated electrophoretically and fluorescence intensity of the substrate and product was determined by Labchip EZ Reader II (Caliper Life Sciences, MA). The kinase activity was measured as percent conversion. The reactions were performed in duplicate for each sample. […] The results were analyzed by Genedata Assay Analyzer. The percent inhibition was plotted against the compound concentration and the IC50 value was determined from the logistic dose-response curve fitting.
In data set [10] the target is T2, GSK3β.
Description: GSK3β Microfluidic Mobility-Shift Assay
as §5
In data set [11] the target is T2, GSK3β. The source holds these as a separate data set.
Description: Human GSK3β as a GST fusion expressed in baculoviral system was purchased from BPS Bioscience (San Diego, Calif.). […] Reactions were incubated at room temperature for 60 minutes. 2.5 μL/well of ADP-Glo (Promega, V9103) was added with BioRAPTR, and incubated at room temperature for 40 minutes followed by addition of 5 μL/well of ADP-Glo detection reagent (Promega, V9103) with Combi nL (Thermo, Waltham, Mass.) and incubation at room temperature for 30 minutes. The plates were read on a ViewLux (PerkinElmer, Waltham, Mass.) for luminescence. Data were scaled using the positive and neutral controls and fitted for IC50 as described below.
ADP Glo Assay Protocol (10 μM ATP) in 384-Well Format
100 nL/well compounds were pinned. […] Incubated at room temperature for 60 minutes. Added 20 μL/well of ADP-glo (Promega, V9103) with Combi, and incubated at room temperature for 40 minutes. Added 40 μL/well of ADP-glo (Promega, V9103) with Combi, incubated at room temperature for 30 minutes. Read on Envision for luminescence.
A further data set concerns AML cell lines. The data set is described as follows: AML cell morphology, May-Grunwald Giemsa staining. Format: cell-based. The note with it: three days after treatment, vs vehicle. On the procedure:
Compound 70 Induces Morphological Changes in AML Cell Lines Consistent with Myeloid Differentiation
On day three post-chemical treatment, cytospin preparations were performed. Changes in cellular morphology were evaluated by May-Grunwald Giemsa staining (Sigma Aldrich). Images were acquired by light microscopy at 400× magnification.

A further data set concerns HL-60 and U937 cells. Put plainly: GE-HTS 32-gene myeloid differentiation signature. Format: cell-based. The settings on record: three days treatment. On the procedure:
HL-60 and U937 cells were treated for three days with compound 70 or vehicle. A 32-gene differentiation signature was quantified by the LMA/bead-based approach and a Weighted Summed Score (Differentiation Score) calculated for all genes was determined for each condition. Error bars denote the mean±SD of 8 replicates and statistical significance of the differences between these differentiation scores was derived using a one-way ANOVA with a Bonferroni correction.
Compound 70 Induces a Gene Expression Signature in AML Cell Lines Consistent with Myeloid Differentiation […]

For data set [12], the system named is amphetamine-induced hyperactivity. The data set is described as follows: Amphetamine-induced hyperactivity (AIH) in vivo. The note with it: mice, vs vehicle.
A short description of data set [13]: Pharmacokinetics and brain distribution in mice. Format: in vivo. The note with it: single i.p. dose 30 mg/kg, male C57BL/6 mice.
Data set [14] deals with human iPSC-NPCs with TCF/LEF-luciferase reporter. The data set is described as follows: Neurogenesis assay. Format: cell-based. The settings on record: 24-h treatment. From the text:
See, e.g., Zhao et al., J Biomol Screen. 2012 October; 17(9):1252-63.

pEC50, pIC50: −log10 of the molar value. Entries after “also recorded” stand apart in the source; their conditions may differ. Read-outs that look alike come from different tables or passages of the source. Where only a bound is given, the exact number is not on record here.

T2 sequence (P49841 whole entry): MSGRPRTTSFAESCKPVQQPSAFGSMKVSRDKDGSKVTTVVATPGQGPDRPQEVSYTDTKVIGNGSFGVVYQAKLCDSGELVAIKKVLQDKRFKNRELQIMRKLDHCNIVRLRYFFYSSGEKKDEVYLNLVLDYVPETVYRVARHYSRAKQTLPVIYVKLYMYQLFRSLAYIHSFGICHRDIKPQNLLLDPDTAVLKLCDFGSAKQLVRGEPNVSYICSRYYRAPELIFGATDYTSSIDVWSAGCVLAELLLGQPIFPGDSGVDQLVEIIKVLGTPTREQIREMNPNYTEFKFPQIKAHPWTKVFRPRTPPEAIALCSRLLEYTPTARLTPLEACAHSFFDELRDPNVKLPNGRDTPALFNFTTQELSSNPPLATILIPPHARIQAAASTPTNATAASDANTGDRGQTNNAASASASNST
T1 sequence (P49840 whole entry): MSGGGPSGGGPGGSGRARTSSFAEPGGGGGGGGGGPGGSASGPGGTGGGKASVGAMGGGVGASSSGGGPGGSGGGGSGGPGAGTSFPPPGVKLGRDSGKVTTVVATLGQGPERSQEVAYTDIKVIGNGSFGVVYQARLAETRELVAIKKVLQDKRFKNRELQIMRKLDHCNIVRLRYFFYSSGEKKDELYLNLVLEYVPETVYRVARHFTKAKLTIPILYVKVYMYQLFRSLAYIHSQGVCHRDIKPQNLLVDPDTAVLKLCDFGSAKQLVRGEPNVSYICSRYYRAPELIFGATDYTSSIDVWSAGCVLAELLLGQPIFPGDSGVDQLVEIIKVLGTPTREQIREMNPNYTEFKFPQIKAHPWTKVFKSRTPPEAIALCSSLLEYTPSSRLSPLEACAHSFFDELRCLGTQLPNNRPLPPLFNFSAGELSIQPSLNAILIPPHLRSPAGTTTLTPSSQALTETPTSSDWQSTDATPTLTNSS
Sequence of PLK1 (P53350 whole entry): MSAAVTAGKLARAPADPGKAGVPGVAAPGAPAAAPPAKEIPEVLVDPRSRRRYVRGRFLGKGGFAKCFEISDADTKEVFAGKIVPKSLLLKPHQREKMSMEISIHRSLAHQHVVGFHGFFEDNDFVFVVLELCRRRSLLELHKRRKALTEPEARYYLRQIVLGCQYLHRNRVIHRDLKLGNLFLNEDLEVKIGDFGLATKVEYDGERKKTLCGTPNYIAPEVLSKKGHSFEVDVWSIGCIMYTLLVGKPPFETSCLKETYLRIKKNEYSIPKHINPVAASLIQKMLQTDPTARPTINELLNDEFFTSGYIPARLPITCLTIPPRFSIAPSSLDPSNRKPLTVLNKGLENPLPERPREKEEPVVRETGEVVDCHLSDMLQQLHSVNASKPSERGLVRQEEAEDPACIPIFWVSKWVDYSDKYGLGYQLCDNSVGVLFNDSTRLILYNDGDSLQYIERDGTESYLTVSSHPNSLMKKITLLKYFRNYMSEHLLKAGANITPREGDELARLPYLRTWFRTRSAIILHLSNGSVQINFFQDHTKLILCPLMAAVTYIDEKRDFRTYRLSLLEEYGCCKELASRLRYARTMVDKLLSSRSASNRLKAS
Sequence of HIPK4 (Q8NE63 whole entry): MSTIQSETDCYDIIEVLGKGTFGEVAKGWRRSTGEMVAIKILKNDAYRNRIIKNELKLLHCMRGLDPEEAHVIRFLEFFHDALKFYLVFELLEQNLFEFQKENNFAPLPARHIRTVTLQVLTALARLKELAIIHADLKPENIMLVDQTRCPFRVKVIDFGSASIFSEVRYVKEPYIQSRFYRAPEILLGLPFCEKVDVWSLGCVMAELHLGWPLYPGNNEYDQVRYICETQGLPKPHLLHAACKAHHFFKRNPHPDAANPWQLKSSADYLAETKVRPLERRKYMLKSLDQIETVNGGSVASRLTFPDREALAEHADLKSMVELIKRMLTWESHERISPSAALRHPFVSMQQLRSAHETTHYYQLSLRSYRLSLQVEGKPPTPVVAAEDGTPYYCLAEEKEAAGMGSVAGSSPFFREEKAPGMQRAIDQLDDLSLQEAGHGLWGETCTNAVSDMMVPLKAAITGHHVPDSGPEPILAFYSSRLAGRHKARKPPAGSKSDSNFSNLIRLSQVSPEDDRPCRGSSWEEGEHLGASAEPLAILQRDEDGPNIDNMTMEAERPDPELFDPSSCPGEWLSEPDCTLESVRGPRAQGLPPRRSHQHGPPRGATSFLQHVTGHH
Sequence of BRAF (P15056 whole entry): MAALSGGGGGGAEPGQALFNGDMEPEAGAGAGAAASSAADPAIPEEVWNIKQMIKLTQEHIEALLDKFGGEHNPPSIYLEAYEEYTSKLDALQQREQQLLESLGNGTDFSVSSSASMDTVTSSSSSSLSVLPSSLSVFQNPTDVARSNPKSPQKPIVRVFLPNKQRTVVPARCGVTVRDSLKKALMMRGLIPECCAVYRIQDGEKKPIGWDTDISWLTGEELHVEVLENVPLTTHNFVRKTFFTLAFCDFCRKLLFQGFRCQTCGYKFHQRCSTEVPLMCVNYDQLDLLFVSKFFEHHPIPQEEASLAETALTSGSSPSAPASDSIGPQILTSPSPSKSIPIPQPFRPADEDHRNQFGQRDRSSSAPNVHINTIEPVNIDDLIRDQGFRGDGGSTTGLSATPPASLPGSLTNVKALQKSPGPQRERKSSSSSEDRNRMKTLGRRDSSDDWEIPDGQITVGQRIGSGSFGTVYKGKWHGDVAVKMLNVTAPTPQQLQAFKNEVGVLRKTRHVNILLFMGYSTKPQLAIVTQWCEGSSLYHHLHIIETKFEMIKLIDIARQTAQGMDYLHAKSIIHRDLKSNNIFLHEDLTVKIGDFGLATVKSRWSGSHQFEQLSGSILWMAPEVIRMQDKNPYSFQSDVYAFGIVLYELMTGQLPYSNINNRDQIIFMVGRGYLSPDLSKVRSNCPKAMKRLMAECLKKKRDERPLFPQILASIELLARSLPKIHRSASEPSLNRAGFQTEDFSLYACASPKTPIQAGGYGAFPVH
Sequence of PKR (P19525 whole entry): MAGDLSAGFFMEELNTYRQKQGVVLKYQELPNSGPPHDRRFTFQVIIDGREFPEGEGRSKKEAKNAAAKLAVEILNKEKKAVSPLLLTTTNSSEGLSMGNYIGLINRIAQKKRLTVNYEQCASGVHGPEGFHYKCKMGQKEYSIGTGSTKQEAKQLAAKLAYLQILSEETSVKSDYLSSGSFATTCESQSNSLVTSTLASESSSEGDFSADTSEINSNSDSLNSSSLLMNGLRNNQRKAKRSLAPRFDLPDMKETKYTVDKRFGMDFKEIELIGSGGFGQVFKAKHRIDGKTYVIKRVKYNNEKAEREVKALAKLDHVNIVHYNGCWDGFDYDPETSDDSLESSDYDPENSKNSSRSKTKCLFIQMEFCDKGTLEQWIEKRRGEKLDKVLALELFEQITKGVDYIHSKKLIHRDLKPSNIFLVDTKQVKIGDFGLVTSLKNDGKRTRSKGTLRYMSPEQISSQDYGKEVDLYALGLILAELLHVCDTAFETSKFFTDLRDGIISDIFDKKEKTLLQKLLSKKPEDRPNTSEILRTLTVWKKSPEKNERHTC
Sequence of MLK3 (Q16584 whole entry): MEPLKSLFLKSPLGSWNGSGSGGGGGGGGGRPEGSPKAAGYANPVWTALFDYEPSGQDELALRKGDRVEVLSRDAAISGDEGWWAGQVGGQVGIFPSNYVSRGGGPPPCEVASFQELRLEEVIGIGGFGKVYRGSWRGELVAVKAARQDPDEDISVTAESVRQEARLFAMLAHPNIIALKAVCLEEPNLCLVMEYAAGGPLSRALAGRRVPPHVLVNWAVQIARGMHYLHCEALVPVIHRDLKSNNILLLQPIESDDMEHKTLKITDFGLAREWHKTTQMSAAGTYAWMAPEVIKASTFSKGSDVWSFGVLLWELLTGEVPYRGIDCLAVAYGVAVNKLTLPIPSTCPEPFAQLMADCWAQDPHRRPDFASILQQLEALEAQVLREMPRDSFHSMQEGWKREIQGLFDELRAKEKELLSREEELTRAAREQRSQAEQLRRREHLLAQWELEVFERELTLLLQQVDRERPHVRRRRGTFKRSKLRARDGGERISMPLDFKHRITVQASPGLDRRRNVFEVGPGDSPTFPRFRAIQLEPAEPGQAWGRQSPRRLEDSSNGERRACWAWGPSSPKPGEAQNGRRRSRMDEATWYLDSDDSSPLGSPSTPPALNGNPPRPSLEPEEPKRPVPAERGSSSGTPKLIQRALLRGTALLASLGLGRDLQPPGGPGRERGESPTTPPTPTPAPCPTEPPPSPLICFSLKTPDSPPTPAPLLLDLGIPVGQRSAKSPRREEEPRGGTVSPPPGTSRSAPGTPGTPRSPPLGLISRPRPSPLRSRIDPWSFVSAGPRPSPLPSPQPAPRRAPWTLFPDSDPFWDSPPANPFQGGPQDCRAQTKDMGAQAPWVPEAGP
Sequence of MAP2K6 (P52564 whole entry): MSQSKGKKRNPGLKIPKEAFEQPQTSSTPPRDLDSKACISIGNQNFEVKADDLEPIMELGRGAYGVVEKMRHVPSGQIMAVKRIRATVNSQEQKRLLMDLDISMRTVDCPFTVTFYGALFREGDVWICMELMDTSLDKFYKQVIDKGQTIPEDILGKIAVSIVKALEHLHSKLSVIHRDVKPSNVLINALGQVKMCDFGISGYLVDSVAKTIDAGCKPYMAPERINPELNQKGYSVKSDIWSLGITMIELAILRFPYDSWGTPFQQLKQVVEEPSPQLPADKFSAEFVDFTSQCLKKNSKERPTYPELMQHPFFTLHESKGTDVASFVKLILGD
Description for BRAF: as §1, §2, §3, §4
Description for CDK4: as §1, §2, §3, §4
Description for CDK5: (§6) Single Point Inhibitory Analysis of Selected Compounds (Carna Biosciences)
as §1, §2, §3, §4
Description for CDK9: as §6, §1, §2, §3, §4
Description for CK1g1: as §1, §2, §3, §4
Description for CK1g3: as §1, §2, §3, §4
Description for DYKR1B: as §1, §2, §3, §4
Description for Erk5: as §6, §1, §2, §3, §4
Description for HIPK4: as §6, §1, §2, §3, §4
Description for LIMK1: as §1, §2, §3, §4
Description for MAP2K6: as §6, §1, §2, §3, §4
Description for MELK: as §6, §1, §2, §3, §4
Description for MLK3: as §6, §1, §2, §3, §4
Description for PBS stability: Stability was determined in the presence of PBS pH 7.4 with 0.1% DMSO. Each compound was prepared in duplicate on six separate plates and allowed to equilibrate at room temperature with a 250 rpm orbital shake for 48 hours. One plate was removed at each time point (0, 2, 4, 8, 24, and 48 hours). […] Additionally, to the remaining material at each time point, acetonitrile was added to force dissolution of compound (to test for recovery of compound). An aliquot of this was also analyzed by UPLC-MS.
Description for PKR: as §6, §1, §2, §3, §4
Description for PLK1: as §6, §1, §2, §3, §4
Description for RSK3: as §6, §1, §2, §3, §4
Description for panel of 311 kinases: as §1, §2, §3, §4

`[Li+]` [Li^+]: the negative logarithm of the IC50 (pIC50) with GSK3 is 2.70.
On to `CC1(C)CC(=O)C2=C(C1)Nc1n[nH]c(C3CC3)c1C2(C)c1ccccc1` (racemic) [Compound 113], for which the “Plasma stability % remaining” value in data set [1] turned out to be 90.5%. In addition, the pEC50 in data set [2] (SH-SY5Y) is 5.32.
Take `COc1ccccc1[C@@H]1C2=C(CC(C)(C)CC2=O)Nc2n[nH]c(C(F)(F)F)c21` [Compound 54, (R)-4-(2-methoxyphenyl)-7,7-dimethyl-3-(trifluoromethyl)-6,7,8,9-tetrahydro-2H-pyrazolo[3,4-b]quinolin-5(4H)-one]: the inhibition at 10 µM on GSK3α [3] is 99.9%; against LIMK1, 6.7%; at MELK, 4.5%; against CDK5, 86.7%; against HIPK4 it was 3.2%; against PLK1, 21.3%. For the same molecule, the inhibition at 10 µM against Erk5 worked out at 0.6%; at RSK3 it was 0.1%; at BRAF it was 10.8%; at DYKR1B, 52.5%; against CK1g3 it was 3.2%; at PKR it was 0.1%. Besides, the inhibition at 10 µM on CK1g1 is 0.5%; against CDK9 it was 20.5%; on MLK3 it was 18.8%; at GSK3β [8], 99.9%; on CDK4, 19%; at MAP2K6, 0.1%. For the same molecule, the values for the pEC50 in [4], in data set [2] and in [6] were 5.30, 5.77 and 5.32, respectively. Besides, in “PBS stability”, the “PBS stability, % still present” value is on record as “more than 95%”. Also, in [5] (HEK293, read-out: TCF/LEF EC50 (μM), HEK293 reporter cells), the EC50 came to 5 µM. Also, the “GSH stability, % remaining” value in “GSH stability” was determined as 99%. Besides, the “Microsomal Stability” value in data set [7] is on record as “M: 0%”. Moreover, the “% of the kinome (311 kinases) inhibited” value in the data set on panel of 311 kinases (10 μM, 311 kinases) turned out to be 2.6%.
Regarding `CC1(C)CC(=O)C2=C(C1)Nc1n[nH]c(C(F)(F)F)c1[C@@H]2c1c(F)cccc1F` [Compound 59], the pIC50 against GSK3α [9] was 6.00 to 7.00; against GSK3β [10] it was over 7.00; at GSK3β [11], over 7.00. Further, in data set [6], the pEC50 was under 4.60.
As for `CC1(C)CC(=O)C2=C(C1)Nc1n[nH]c(C(F)(F)F)c1C2(C)c1ccccc1` (single isomer, unassigned) [Compound 70, 4,7,7-trimethyl-4-phenyl-3-(trifluoromethyl)-6,7,8,9-tetrahydro-2H-pyrazolo[3,4-b]quinolin-5(4H)-one], the “morphological evidence of AML differentiation” value in the data set on AML cell lines is “induces morphological evidence of AML (acute myeloid leukemia) differentiation”; in the data set with AML cell lines (listed as compound 70), “demonstrated cellular differentiation”. Also, in data set [5] (HEK293, read-out: TCF/LEF EC50 (μM)), the EC50 worked out at 1.86 µM. The “AML differentiation by GE-HTS signature” value in the data set on HL-60 and U937 cells is given as “induced a gene expression signature in AML cell lines consistent with myeloid differentiation; also recorded: induces AML (acute myeloid leukemia) differentiation by GE-HTS signature”. Further, the pEC50 in data set [2] (SH-SY5Y) was 6.09. Further, in data set [12] (systemic i.p.), the “effect on amphetamine-induced hyperactivity, intraperitoneal injection” value is “attenuate amphetamine-induced hyperactivity”. Besides, in data set [13], the “pharmacokinetic profile (systemic exposure and brain distribution) compared to CHIR99021” value is on record as “improved pharmacokinetic profile”.
Take `Cc1[nH]nc2c1C(C)(c1cccc(C#N)c1)C1=C(CC(C)(C)CC1=O)N2` (racemic) [Compound 95, 3-(1,6,6,9-tetramethyl-8-oxo-4,5,6,7,8,9-hexahydro-2H-pyrazolo[3,4-b]quinolin-9-yl)benzonitrile]: the “Plasma stability % remaining” value in [1] is 99.0%. Moreover, in [2] (SH-SY5Y), the pEC50 was 5.20.
For the molecule `COc1ccccc1[C@@H]1C2=C(CC(C)(C)CC2=O)Nc2n[nH]c(C)c21` [Compound 22, 4-(2-methoxyphenyl)-3,7,7-trimethyl-6,7,8,9-tetrahydro-1H-pyrazolo[3,4-b]quinolin-5(4H)-one], the neurogenesis entry in data set [14] was “promoted neurogenesis”. In addition, the “effect on amphetamine-induced hyperactivity, ICV injection” value in data set [12] (intracerebroventricular) was “attenuate amphetamine-induced hyperactivity”. For the same molecule, the “number of kinases inhibited greater than 50% at 10 μM” value with panel of 311 kinases (panel of 311 kinases) came to 8 kinases.
